Measurements reported in patent US8088819B2, “Derivatives of substituted 3-phenyl-1-(phenylthienyl)propan-1-ones and of 3-phenyl-1-(phenylfuranyl) propan-1-ones, preparation and use” (priority 2006, dated 2012).

What was measured:
hPPARdelta = target: T1, hPPARdelta (Homo sapiens, UniProt Q03181); experiment: PPAR activation: Gal4-hPPARδ chimera luciferase transactivation in COS-7 cells, Method 2; assay type: cell-based; details: COS-7, 24 h
T1 construct: expressed in transfected cells; host or cells: COS-7 (monkey kidney fibroblasts)
T1 sequence (Q03181 211-439 limits assumed): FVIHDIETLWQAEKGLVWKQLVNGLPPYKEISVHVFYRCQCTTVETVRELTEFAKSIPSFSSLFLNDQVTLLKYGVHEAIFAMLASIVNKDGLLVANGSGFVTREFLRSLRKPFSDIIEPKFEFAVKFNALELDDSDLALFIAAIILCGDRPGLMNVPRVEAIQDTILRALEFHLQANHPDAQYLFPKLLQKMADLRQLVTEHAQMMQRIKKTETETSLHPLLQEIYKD
Outline: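 COS-7 cells were transfected with Gal4-PPAR LBD chimera plus Gal4(RE)_TkpGL3 luciferase reporter (1/10) and seeded serum-free for 4 h. Compounds at 10^−5 to 100 μm were applied for 24 h at 37° C in 1% lipid-free synthetic serum. Luciferase was read after lysis, and EC50 derived.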

[1] = test system: target genes of the PPARs; experiment: Expression of PPARδ target genes in skeletal muscle of the C57Bl6 mouse (compound 2), quantitative RT-PCR; assay type: in vivo; details: C57Bl6 mice; 50 mpk; 14 days
Description: The PPARδ agonistic properties of the molecules according to the invention previously measured in vitro should be reflected at the level of the skeletal muscle in an overexpression of the target genes directly under the control of the PPARδ receptor: the genes that were investigated in this experiment are the genes coding for UCP2 (uncoupling protein 2, mitochondrial transporter involved in thermoregulation) and PDK4 (pyruvate dehydrogenase kinase isoform 4, enzyme of carbohydrate metabolism).
Female C57Bl6 mice were kept under a cycle of light and darkness of 12/12 hours at a constant temperature of 20±3° C. After acclimation for one week, the mice were weighed and put into groups of 6 animals selected so that the distribution of their body weight, of their plasma lipid levels and of total cholesterol determined for the first time before the experiment, is uniform. […]
1 μg of total RNA (quantified on the basis of the spectrophotometer reading) was then reverse-transcribed to complementary DNA by reaction for 1 hour at 37° C. in a total volume of 30 μl containing buffer 1× (Invitrogen), 1.5 mM of DTT, 0.18 mM of dNTPs (Promega), 200 ng of pdN6 (Amersham), 30 U of RNase inhibitor (Promega) and 1 μl of MMLV-RT (Invitrogen). […]
The amount of fluorescence emitted is directly proportional to the amount of complementary DNA present at the start of the reaction and amplified during PCR. […]

Row | SMILES | EC50 (hPPARdelta; 1% Ultroser) [nM] | Emax (hPPARdelta; maximum percentage response relative to the reference GW501516, read-out: hPPARdelta % max) [%] | expression of the gene coding for PDK4 in skeletal muscle [1] | expression of the gene coding for UCP2 in skeletal muscle [1]
1 | CC(C)(Oc1ccc(CCC(OCc2ccccc2)c2ccc(-c3ccc(C(F)(F)F)cc3)s2)c(Cl)c1Cl)C(=O)O (stereo not shown) [Compound 7, 2-(4-(3-(benzyloxy)-3-(5-(4-(trifluoromethyl)phenyl)thien-2-yl)propyl)-2,3-dichlorophenoxy)-2-methylpropanoic acid] | 30 | 92 |  | 
2 | CC(C)(Oc1ccc(CCC(=O)c2ccc(-c3ccc(C(F)(F)F)cc3)s2)c(Cl)c1Cl)C(=O)O [Compound 2, 2-(2,3-dichloro-4-(3-oxo-3-(5-(4-(trifluoromethyl)phenyl)thien-2-yl)propyl)phenoxy)-2-methylpropanoic acid] |  |  | significant increase | significant increase
